# Test results from patent US5310667A (priority 1989, dated 1994).
# B1: wild type petunia EPSP synthase (Petunia x hybrida) (protein)
# chain: KPSEIVLQPIKEISGTVKLPGSKSLSNRILLLAALSEGTTVVDNLLSSDDIHYMLGALKTLGLHVEEDSANQRAVVEGCGGLFPVGKESKEEIQLFLGNAGTAMRPLTAAVTVAGGNSRYVLDGVPRMRERPISDLVDGLKQLGAEVDCFLGTKCPPVRIVSKGGLPGGKVKLSGSISSQYLTALLMAAPLALGDVEIEIIDKLISVPYVEMTLKLMERFGISVEHSSSWDRFFVRGGQKYKSPGKAFVEGDASSASYFLAGAAVTGGTITVEGCGTNSLQGDVKFAEVLEKMGAEVTWTENSVTVKGPPRSSSGRKHLRAIDVNMNKMPDVAMTLAVVALYADGPTAIRDVASWRVKETERMIAICTELRKLGATVEEGPDYCIITPPEKLNVTDIDTYDDHRMAMAFSLAACADVPVTINDPGCTRKTFPNYFDVLQQYSKH
# Legend:
# [1] = molecular target: T1, petunia EPSP synthase glycine (101) to alanine variant (Petunia hybrida, UniProt P11043, G173A); assay: EPSP synthase kinetic constants (appKi glyphosate, appKm PEP); assay type: biochemical; conditions: relative to wild type
# T1 construct: made in house; host or cells: E. coli
# T1 sequence (P11043 73-516 G173A): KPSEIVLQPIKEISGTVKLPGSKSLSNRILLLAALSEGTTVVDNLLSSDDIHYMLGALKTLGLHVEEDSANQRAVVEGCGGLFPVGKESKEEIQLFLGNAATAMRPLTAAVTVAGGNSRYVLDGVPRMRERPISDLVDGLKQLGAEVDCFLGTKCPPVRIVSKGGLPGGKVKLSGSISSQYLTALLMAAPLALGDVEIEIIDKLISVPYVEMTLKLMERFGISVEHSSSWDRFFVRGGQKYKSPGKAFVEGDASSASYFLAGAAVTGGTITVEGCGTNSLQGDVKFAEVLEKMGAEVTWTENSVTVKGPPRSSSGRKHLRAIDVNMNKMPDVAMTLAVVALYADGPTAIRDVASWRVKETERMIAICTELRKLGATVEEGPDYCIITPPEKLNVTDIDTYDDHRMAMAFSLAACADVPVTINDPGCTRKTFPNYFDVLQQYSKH
# Description: (§1) To an assay mix (40 μl) containing shikimate-3-phosphate (2 mM), ^14 C-phosphoenolpyruvate (1 mM, 1.2 mCi/mmol), ammonium molybdate (0.1 mM), potassium fluoride (5 mM) in 50 mM HEPES-KOH, pH 7, was added the extract and incubated at 25° C. for 2 mins. The reaction was quenched by the addition of 50 μl of 50 μl of 90% ethanol/0.1M acetic acid, pH 4.5. 70 μl of the reaction mixture was loaded on a SynchroPak AX100 HPLC column (0.4×25 cm) and the column was eluted with 0.5M potassium phosphate, pH 5.5 at 1 ml/min. The radioactivity of the eluent was monitored using a Radiomatic Flo-One Beta Instrument. (Radiomatics, Fla.). The EPSP synthase activity was determined by measurement of the conversion of ^14 C-PEP to ^14 C-EPSP synthase, both of which are resolved under the above conditions of chromatography. The protein content of the extract was determined by the method of Bradford (Biorad Labs, Calif.). The specific activity of the extract is expressed as nanomoles of EPSP synthase formed/min/mg protein.
# (§2) Kinetic constants (appKm PEP and appKi glyphosate) were determined for EPSP synthase as described below. Substrate kinetic parameters were determined at pH 7.0 in 50 mM HEPES (N-[2-hydroxyethyl]piperazine-N'-[2-ethanesulfonic acid]) buffer in the presence of 2 mM S3P and varying amounts of ^14 C-PEP (10 μM-400 μM), for 2.0 minutes at 25° C. Reactions were quenched with 100 mM Na Acetate in ethanol, pH 4.5, centrifuged and analyzed for product EPSP formation by HPLC with flow radioactivity detection. HPLC conditions were 0.35 MKPi, pH 6.5, on a Synchropak AX100 column at 1.0 ml/min.
# [2] = molecular target: T2, pMON8186 encoded petunia EPSP synthase variant (glycine (101) to alanine and glycine (144) to aspartic acid) (Petunia hybrida, UniProt P11043, G173A/G216D); assay: as above; assay type: biochemical
# T2 construct: GGT codon for glycine (144) in the mature petunia EPSP synthase; made in house; host or cells: E. coli SR481
# T2 sequence (P11043 73-516 G173A/G216D): as the sequence (P11043 73-516 G173A) above, with G144D counted along it
# Description: The balance of the #215 preculture (~750 μl) was used to inoculate 2 ml of MOPS medium containing 50 μg/ml carbenicillin and was shaken overnight at 37° C. to reach saturation. Plasmid DNA was isolated from an aliquot of the saturated culture using an alkaline lysis procedure. The plasmid was designated pMON8186. An aliquot of the pMON8186 plasmid was used to transform the E. coli host SR481 (described above) and reselected on MOPS medium containing 10 mM glyphosate and 50 μg/ml carbenicillin. A single glyphosate resistant colony of pMON8186 was picked off the selection plate and used to inoculate 3 ml of 2XYT bacterial medium containing 50 μg/ml carbenicillin. The culture was then aerated on rotating wheel at 37° C. until saturated, then it was used to inoculate a larger 500 ml culture. The large culture was grown to saturation by shaking it overnight at 37° C. in a water bath. The bacterial cells were lysed and the extracts were assayed for EPSPS activity.
# Specifically, the bacterial cell paste was washed twice with 0.9% saline, suspended in buffer (100 mM Tris-HCl, 5 mM benzamidine HCl) and passed twice through the French Pressure Cell at 1000 psi. The cell extract was separated from the cells by centrifuging at 15,000 x gravity for 10 mins. at 5° C. It was desalted using Sephadex G-50 (Pharmacia, Piscataway, N.J.). The desalted extract was assayed for EPSP synthase activity as follows:
# as §1, with “70 μl of the reaction mixture was loaded on a SynchroPak AX100 HPLC column (0.4×25 cm) and the column was eluted with 0.5M potassium phosphate, pH 5.5 at 1 ml/min.” left out, “(Radiomatics, Fla.).” left out
# Kinetic constants (appKm PEP and appKi glyphosate) were determined for EPSP synthase as described below. Substrate kinetic parameters were determined at pH 7.0 in 50 mM HEPES (N-[2-hydroxyethyl]piperazine-N'-[2-ethanesulfonic acid]) buffer in the presence of 2 mM S3P and varying amounts of ^14 C-PEP (10 μM-400 μM), for 2.0 minutes at 25° C. Reactions were quenched with 100 mM Na Acetate in ethanol, pH 4.5, centrifuged and analyzed for product EPSP formation by HPLC with flow radioactivity detection. […]
# [3] = molecular target: T3, variant petunia EPSP synthase with glycine (101) to alanine and glycine (144) to asparagine substitutions (Petunia hybrida, UniProt P11043, G173A/G216N); assay: EPSP synthase kinetic constants (Ki glyphosate, Km PEP); assay type: biochemical
# T3 construct: GGT codon for glycine (144) in the mature petunia EPSP synthase
# T3 sequence (P11043 73-516 G173A/G216N): as the sequence (P11043 73-516 G173A) above, with G144N counted along it
# Description: as §2
# [4] = substrate: C=C(OP(=O)(O)O)C(=O)O; assay: purified protein, by the assay type; conditions: 25.0 °C
molecule,measurement,setting,value
"O=C(O)C1=C[C@@H](OP(=O)(O)O)[C@@H](O)[C@H](O)C1 [S3P, shikimate-3-phosphate]",binding constant for shikimate-3-phosphate (S3P),[1],not affected
"C=C(OP(=O)(O)O)C(=O)O [PEP, phosphoenolpyruvate]",Km for PEP,[2],40 µM
same,Km for PEP relative to the glycine (101) to alanine variant,[2],more than four fold lower
same,Km for PEP,[3],91 µM
B1,Km,[4],5.2 µM
